Reference: ChEMBL document CHEMBL4507277

Experiments:
[1] = molecular target: Wee1-like protein kinase 2 (Homo sapiens) (UniProt P0C1S8); settings: Compound concentration 1000.0 nM
[2] = molecular target: Serine/threonine-protein kinase SIK2 (Homo sapiens) (UniProt Q9H0K1); settings: Compound concentration 1000.0 nM
[3] = molecular target: Vascular endothelial growth factor receptor 3 (Homo sapiens) (UniProt P35916); settings: Compound concentration 1000.0 nM
[4] = molecular target: Calcium/calmodulin-dependent protein kinase type II subunit gamma (Homo sapiens) (UniProt Q13555); settings: Compound concentration 1000.0 nM
[5] = molecular target: Serine/threonine-protein kinase 16 (Homo sapiens) (UniProt O75716); settings: Compound concentration 1000.0 nM
[6] = molecular target: Fibroblast growth factor receptor 1 (Homo sapiens) (UniProt P11362); settings: Compound concentration 1000.0 nM
[7] = molecular target: Ephrin type-A receptor 4 (Homo sapiens) (UniProt P54764); settings: Compound concentration 1000.0 nM
[8] = molecular target: Non-receptor tyrosine-protein kinase TNK1 (Homo sapiens) (UniProt Q13470); settings: Compound concentration 1000.0 nM
[9] = system: Phosphatidylinositol 4,5-bisphosphate 3-kinase catalytic subunit alpha isoform (Homo sapiens), P42336 [H1047L]; settings: Compound concentration 1000.0 nM
[10] = molecular target: Dual specificity protein kinase TTK (Homo sapiens) (UniProt P33981); settings: Compound concentration 1000.0 nM
[11] = molecular target: Cyclin-dependent kinase 9 (Homo sapiens) (UniProt P50750); settings: Compound concentration 1000.0 nM
[12] = molecular target: Serine/threonine-protein kinase ULK3 (Homo sapiens) (UniProt Q6PHR2); settings: Compound concentration 1000.0 nM
[13] = molecular target: 3-phosphoinositide-dependent protein kinase 1 (Homo sapiens) (UniProt O15530); settings: Compound concentration 1000.0 nM
[14] = molecular target: Serine/threonine-protein kinase Nek1 (Homo sapiens) (UniProt Q96PY6); settings: Compound concentration 1000.0 nM
[15] = molecular target: Ribosomal protein S6 kinase alpha-2 (Homo sapiens) (UniProt Q15349); settings: Compound concentration 1000.0 nM
[16] = molecular target: Calcium/calmodulin-dependent protein kinase type II subunit delta (Homo sapiens) (UniProt Q13557); settings: Compound concentration 1000.0 nM
[17] = molecular target: Cyclin-dependent kinase 14 (Homo sapiens) (UniProt O94921); settings: Compound concentration 1000.0 nM
[18] = molecular target: Tyrosine-protein kinase Blk (Homo sapiens) (UniProt P51451); settings: Compound concentration 1000.0 nM
[19] = system: Phosphatidylinositol 4,5-bisphosphate 3-kinase catalytic subunit alpha isoform (Homo sapiens), P42336 [Q546K]; settings: Compound concentration 1000.0 nM
[20] = molecular target: BDNF/NT-3 growth factors receptor (Homo sapiens) (UniProt Q16620); settings: Compound concentration 1000.0 nM
[21] = molecular target: Bone morphogenetic protein receptor type-1B (Homo sapiens) (UniProt O00238); settings: Compound concentration 1000.0 nM
[22] = molecular target: Tyrosine-protein kinase CSK (Homo sapiens) (UniProt P41240); settings: Compound concentration 1000.0 nM
[23] = molecular target: Rhodopsin kinase GRK1 (Homo sapiens) (UniProt Q15835); settings: Compound concentration 1000.0 nM
[24] = molecular target: SRSF protein kinase 3 (Homo sapiens) (UniProt Q9UPE1); settings: Compound concentration 1000.0 nM
[25] = molecular target: Macrophage-stimulating protein receptor (Homo sapiens) (UniProt Q04912); settings: Compound concentration 1000.0 nM
[26] = molecular target: Macrophage colony-stimulating factor 1 receptor (Homo sapiens) (UniProt P07333); settings: Compound concentration 1000.0 nM
[27] = molecular target: Alpha-2A adrenergic receptor (Homo sapiens) (UniProt P08913); settings: Compound concentration 10.0 uM
[28] = molecular target: NUAK family SNF1-like kinase 2 (Homo sapiens) (UniProt Q9H093); settings: Compound concentration 1000.0 nM
[29] = molecular target: Ephrin type-A receptor 1 (Homo sapiens) (UniProt P21709); settings: Compound concentration 1000.0 nM
[30] = molecular target: Ankyrin repeat and protein kinase domain-containing protein 1 (Homo sapiens) (UniProt Q8NFD2); settings: Compound concentration 1000.0 nM
[31] = molecular target: Casein kinase I isoform alpha-like (Homo sapiens) (UniProt Q8N752); settings: Compound concentration 1000.0 nM
[32] = molecular target: Tyrosine-protein kinase JAK1 (Homo sapiens) (UniProt P23458); settings: Compound concentration 1000.0 nM
[33] = molecular target: Tyrosine-protein kinase ABL1 (Homo sapiens) (UniProt P00519); settings: Compound concentration 1000.0 nM
[34] = molecular target: Calcium/calmodulin-dependent protein kinase kinase 1 (Homo sapiens) (UniProt Q8N5S9); settings: Compound concentration 1000.0 nM
[35] = molecular target: Serine/threonine-protein kinase D1 (Homo sapiens) (UniProt Q15139); settings: Compound concentration 1000.0 nM
[36] = molecular target: Calcium/calmodulin-dependent protein kinase type 1D (Homo sapiens) (UniProt Q8IU85); settings: Compound concentration 1000.0 nM
[37] = molecular target: Phosphorylase b kinase regulatory subunit alpha, liver isoform (Homo sapiens) (UniProt P46019); settings: Compound concentration 1000.0 nM
[38] = molecular target: Leukocyte tyrosine kinase receptor (Homo sapiens) (UniProt P29376); settings: Compound concentration 1000.0 nM
[39] = molecular target: G protein-coupled receptor kinase 4 (Homo sapiens) (UniProt P32298); settings: Compound concentration 1000.0 nM
[40] = molecular target: Tyrosine-protein kinase Fyn (Homo sapiens) (UniProt P06241); settings: Compound concentration 1000.0 nM
[41] = molecular target: Tyrosine-protein kinase TXK (Homo sapiens) (UniProt P42681); settings: Compound concentration 1000.0 nM
[42] = molecular target: Activated CDC42 kinase 1 (Homo sapiens) (UniProt Q07912); settings: Compound concentration 1000.0 nM
[43] = molecular target: Mitogen-activated protein kinase kinase kinase kinase 5 (Homo sapiens) (UniProt Q9Y4K4); settings: Compound concentration 1000.0 nM
[44] = system: Mast/stem cell growth factor receptor Kit (Homo sapiens), P10721 [D816V]; settings: Compound concentration 1000.0 nM
[45] = molecular target: cGMP-dependent protein kinase 2 (Homo sapiens) (UniProt Q13237); settings: Compound concentration 1000.0 nM

Chain of Serine/threonine-protein kinase ULK3 (Homo sapiens) (Q6PHR2 whole entry): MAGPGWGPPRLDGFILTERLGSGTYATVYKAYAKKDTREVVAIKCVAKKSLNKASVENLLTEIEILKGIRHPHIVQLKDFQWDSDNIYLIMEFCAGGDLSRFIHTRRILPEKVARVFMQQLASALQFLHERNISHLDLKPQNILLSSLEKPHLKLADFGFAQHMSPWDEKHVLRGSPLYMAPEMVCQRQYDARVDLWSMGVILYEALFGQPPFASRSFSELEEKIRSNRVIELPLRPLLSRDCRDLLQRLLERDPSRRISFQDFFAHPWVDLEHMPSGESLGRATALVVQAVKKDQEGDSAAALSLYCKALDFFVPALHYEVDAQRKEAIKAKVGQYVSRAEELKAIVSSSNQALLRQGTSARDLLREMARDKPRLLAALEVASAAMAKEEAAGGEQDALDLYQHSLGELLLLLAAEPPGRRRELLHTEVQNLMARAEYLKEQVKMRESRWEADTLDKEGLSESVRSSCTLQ
Chain of Calcium/calmodulin-dependent protein kinase kinase 1 (Homo sapiens) (Q8N5S9 whole entry, looked up): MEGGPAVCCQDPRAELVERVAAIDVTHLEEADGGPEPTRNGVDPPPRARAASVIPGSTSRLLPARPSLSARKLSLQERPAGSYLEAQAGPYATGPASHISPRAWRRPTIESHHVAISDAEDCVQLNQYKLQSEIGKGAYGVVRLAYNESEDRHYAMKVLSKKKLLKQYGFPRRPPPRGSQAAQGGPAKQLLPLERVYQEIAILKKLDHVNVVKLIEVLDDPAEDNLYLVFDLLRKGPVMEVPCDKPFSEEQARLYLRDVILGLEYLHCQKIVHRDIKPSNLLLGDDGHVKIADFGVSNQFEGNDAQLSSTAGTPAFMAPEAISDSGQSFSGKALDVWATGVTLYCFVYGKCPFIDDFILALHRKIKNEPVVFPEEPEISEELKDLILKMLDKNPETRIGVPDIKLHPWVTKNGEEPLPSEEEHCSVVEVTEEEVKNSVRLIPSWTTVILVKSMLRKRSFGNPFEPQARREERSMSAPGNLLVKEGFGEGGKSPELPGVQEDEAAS
Chain of Wee1-like protein kinase 2 (Homo sapiens) (P0C1S8 whole entry, looked up): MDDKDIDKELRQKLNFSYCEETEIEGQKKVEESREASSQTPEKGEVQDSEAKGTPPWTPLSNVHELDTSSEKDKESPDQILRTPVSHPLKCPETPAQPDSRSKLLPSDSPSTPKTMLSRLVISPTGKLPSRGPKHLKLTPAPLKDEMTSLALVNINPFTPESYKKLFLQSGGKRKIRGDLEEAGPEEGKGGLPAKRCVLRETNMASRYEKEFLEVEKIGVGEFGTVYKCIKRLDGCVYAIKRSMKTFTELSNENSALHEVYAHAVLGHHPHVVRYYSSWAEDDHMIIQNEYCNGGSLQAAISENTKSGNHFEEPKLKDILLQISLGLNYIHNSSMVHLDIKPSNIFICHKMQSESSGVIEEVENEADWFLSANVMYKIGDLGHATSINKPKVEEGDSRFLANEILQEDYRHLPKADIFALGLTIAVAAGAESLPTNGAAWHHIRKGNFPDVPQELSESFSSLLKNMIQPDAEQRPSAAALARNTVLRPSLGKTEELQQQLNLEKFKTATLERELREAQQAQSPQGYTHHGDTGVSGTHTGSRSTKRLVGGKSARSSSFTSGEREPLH
Chain of Phosphatidylinositol 4,5-bisphosphate 3-kinase catalytic subunit alpha isoform (Homo sapiens), P42336 [H1047L] (P42336 whole entry H1047L, canonical isoform): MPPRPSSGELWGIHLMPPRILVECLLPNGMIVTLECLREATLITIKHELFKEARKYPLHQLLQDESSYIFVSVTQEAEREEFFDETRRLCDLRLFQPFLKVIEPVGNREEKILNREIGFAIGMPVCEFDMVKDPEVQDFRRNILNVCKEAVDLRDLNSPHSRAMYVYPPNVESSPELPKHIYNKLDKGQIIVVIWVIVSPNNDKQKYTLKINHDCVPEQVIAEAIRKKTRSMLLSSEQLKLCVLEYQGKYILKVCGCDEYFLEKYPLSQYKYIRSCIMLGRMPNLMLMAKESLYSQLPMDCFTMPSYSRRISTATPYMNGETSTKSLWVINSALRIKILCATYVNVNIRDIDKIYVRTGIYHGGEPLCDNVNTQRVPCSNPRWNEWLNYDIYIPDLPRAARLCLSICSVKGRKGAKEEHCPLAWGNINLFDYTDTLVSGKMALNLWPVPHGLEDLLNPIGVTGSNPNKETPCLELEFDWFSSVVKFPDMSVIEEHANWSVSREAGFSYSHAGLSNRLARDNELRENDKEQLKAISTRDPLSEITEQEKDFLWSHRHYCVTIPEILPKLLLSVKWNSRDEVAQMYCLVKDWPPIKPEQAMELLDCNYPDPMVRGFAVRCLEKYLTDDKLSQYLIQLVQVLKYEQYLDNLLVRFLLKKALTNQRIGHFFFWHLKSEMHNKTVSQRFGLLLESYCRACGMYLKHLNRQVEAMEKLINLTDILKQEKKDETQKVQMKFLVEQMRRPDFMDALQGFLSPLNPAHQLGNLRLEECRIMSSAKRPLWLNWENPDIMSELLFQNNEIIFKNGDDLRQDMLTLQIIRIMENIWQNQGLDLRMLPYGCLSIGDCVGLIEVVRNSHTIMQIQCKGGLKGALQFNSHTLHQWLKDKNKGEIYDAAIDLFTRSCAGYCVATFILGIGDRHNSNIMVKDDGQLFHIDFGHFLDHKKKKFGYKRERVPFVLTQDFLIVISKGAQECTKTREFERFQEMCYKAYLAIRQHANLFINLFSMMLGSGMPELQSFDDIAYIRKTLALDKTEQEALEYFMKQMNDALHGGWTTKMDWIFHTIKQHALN
Chain of Macrophage colony-stimulating factor 1 receptor (Homo sapiens) (P07333 whole entry): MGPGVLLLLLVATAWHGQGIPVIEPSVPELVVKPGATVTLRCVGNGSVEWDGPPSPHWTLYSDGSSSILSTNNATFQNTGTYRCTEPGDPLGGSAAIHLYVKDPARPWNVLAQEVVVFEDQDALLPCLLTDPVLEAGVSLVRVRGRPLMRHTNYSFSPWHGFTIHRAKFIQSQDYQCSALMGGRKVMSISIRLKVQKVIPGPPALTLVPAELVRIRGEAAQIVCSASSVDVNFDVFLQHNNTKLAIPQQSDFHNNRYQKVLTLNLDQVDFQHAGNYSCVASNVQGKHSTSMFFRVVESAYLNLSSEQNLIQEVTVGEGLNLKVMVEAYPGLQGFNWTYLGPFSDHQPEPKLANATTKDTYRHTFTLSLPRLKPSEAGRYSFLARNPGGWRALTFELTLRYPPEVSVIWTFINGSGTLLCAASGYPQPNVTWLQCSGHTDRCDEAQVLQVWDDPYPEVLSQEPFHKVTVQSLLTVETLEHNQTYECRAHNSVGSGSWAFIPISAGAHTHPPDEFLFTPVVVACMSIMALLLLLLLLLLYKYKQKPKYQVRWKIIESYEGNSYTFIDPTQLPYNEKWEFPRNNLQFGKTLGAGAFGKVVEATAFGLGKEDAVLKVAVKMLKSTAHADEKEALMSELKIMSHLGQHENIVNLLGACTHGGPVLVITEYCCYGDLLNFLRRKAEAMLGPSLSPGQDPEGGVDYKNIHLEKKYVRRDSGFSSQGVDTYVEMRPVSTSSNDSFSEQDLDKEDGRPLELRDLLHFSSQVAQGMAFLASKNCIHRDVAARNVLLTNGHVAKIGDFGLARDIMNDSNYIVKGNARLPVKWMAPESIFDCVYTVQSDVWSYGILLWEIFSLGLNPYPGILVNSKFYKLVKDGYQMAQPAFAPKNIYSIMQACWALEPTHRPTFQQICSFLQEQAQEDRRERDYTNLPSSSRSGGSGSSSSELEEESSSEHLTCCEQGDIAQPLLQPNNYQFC
Chain of 3-phosphoinositide-dependent protein kinase 1 (Homo sapiens) (O15530 whole entry): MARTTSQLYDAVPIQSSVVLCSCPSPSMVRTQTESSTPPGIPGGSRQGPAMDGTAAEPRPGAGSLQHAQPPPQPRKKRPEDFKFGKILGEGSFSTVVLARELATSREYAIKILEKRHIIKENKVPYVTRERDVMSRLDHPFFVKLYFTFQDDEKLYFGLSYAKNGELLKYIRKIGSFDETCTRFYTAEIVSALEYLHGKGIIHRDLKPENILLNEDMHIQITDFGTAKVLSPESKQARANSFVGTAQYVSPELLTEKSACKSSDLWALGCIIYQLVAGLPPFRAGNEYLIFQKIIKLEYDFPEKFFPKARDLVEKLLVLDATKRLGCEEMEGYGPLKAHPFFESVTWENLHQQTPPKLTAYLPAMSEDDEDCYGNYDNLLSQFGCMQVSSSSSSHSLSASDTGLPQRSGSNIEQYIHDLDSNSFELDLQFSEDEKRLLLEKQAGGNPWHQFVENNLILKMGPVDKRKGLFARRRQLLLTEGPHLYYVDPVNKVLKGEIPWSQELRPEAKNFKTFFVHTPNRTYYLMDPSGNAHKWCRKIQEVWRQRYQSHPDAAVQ
Chain of Tyrosine-protein kinase CSK (Homo sapiens) (P41240 2-450 limits assumed): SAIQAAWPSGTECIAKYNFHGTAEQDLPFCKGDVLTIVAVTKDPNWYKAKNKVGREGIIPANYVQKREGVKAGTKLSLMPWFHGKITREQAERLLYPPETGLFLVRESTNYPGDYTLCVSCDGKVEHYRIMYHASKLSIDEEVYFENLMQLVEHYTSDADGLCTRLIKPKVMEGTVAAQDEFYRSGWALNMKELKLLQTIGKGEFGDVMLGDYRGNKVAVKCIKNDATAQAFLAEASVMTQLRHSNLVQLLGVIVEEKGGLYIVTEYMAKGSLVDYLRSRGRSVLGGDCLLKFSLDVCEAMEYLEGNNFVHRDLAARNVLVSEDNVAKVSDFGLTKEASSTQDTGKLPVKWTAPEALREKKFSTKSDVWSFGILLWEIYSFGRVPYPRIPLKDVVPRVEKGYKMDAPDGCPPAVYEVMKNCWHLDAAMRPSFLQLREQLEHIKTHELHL
Chain of Serine/threonine-protein kinase 16 (Homo sapiens) (O75716 whole entry): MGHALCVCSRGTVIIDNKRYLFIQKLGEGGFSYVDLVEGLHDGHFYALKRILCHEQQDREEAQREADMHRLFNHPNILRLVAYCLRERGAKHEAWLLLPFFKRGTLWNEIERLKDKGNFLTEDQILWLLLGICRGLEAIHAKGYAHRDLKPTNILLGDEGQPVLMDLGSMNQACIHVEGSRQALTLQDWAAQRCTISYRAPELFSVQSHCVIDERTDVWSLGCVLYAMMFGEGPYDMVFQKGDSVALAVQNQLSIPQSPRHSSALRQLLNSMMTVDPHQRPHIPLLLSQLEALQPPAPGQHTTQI

CCS(=O)(=O)c1cc2cc(C[C@@](O)(CC(C)(C)c3ccc(F)cc3C(N)=O)C(F)(F)F)[nH]c2cn1
inactive: residual activity [1] 95% | residual activity [2] 100% | residual activity [3] 90% | residual activity [4] 77% | residual activity [5] 91% | residual activity [6] 95% | residual activity [7] 95% | residual activity [8] 100% | residual activity [9] 97% | residual activity [10] 78% | residual activity [11] 78% | residual activity [12] 98% | residual activity [13] 100% | residual activity [14] 53% | residual activity [15] 80% | residual activity [16] 81% | residual activity [17] 100% | residual activity [18] 100% | residual activity [19] 69% | residual activity [20] 84% | residual activity [21] 55% | residual activity [22] 82% | residual activity [23] 100% | residual activity [24] 100% | residual activity [25] 85% | residual activity [26] 100% | inhibition [27] -5.76% | residual activity [28] 84% | residual activity [29] 99% | residual activity [30] 70% | residual activity [31] 99% | residual activity [32] 89% | residual activity [33] 99% | residual activity [34] 87% | residual activity [35] 100% | residual activity [36] 89% | residual activity [37] 100% | residual activity [38] 100% | residual activity [39] 100% | residual activity [40] 100% | residual activity [41] 97% | residual activity [42] 100% | residual activity [43] 99% | residual activity [44] 90% | residual activity [45] 86%

CCS(=O)(=O)c1cc2cc(C[C@](O)(CC(C)(C)c3ccc(F)cc3C(N)=O)C(F)(F)F)[nH]c2cn1
inactive: residual activity [1] 100% | residual activity [2] 100% | residual activity [3] 95% | residual activity [4] 100% | residual activity [5] 100% | residual activity [6] 94% | residual activity [7] 100% | residual activity [8] 98% | residual activity [9] 96% | residual activity [10] 99% | residual activity [11] 100% | residual activity [12] 100% | residual activity [13] 100% | residual activity [15] 100% | residual activity [16] 100% | residual activity [17] 100% | residual activity [18] 100% | residual activity [19] 80% | residual activity [20] 100% | residual activity [21] 100% | residual activity [22] 100% | residual activity [23] 100% | residual activity [24] 100% | residual activity [25] 100% | residual activity [26] 100% | inhibition [27] -4.94% | residual activity [28] 95% | residual activity [29] 100% | residual activity [30] 89% | residual activity [31] 100% | residual activity [32] 96% | residual activity [33] 100% | residual activity [34] 100% | residual activity [35] 100% | residual activity [36] 100% | residual activity [37] 100% | residual activity [38] 97% | residual activity [39] 100% | residual activity [40] 77% | residual activity [41] 90% | residual activity [42] 100% | residual activity [43] 100% | residual activity [44] 100% | residual activity [45] 85%
active: residual activity [14] 45%
